Measurements as given in patent US10239843B2 (CANCER RESEARCH TECHNOLOGY LIMITED, priority 2014, dated 2019).
pIC50: −log10 of the molar value. Like-named read-outs stand apart in the source and are kept apart here.

Experiments:
PARG in HeLa cell line = test: PARG cell assay (PAR chain immunofluorescence after MMS); assay type: cell-based; conditions: HeLa cells, MMS treatment, read-out: PARG Cell IC50
How it was run: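 HeLa cells were dosed with compound for 1 h, then given MMS at 50 μg/mL final for a further hour. Cells were methanol-fixed, permeabilised and stained overnight at 4° C with anti-PAR monoclonal antibody. Retained nuclear PAR chains, detected by indirect immunofluorescence, indicate PARG inhibition.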

Human Full Length PARG = Human Full Length PARG (Homo sapiens (Human), UniProt Q86W56); test: PARG enzyme assay (TR-FRET); assay type: biochemical; conditions: read-out: PARG Biochem IC50
Chain of Human Full Length PARG (Q86W56 whole entry): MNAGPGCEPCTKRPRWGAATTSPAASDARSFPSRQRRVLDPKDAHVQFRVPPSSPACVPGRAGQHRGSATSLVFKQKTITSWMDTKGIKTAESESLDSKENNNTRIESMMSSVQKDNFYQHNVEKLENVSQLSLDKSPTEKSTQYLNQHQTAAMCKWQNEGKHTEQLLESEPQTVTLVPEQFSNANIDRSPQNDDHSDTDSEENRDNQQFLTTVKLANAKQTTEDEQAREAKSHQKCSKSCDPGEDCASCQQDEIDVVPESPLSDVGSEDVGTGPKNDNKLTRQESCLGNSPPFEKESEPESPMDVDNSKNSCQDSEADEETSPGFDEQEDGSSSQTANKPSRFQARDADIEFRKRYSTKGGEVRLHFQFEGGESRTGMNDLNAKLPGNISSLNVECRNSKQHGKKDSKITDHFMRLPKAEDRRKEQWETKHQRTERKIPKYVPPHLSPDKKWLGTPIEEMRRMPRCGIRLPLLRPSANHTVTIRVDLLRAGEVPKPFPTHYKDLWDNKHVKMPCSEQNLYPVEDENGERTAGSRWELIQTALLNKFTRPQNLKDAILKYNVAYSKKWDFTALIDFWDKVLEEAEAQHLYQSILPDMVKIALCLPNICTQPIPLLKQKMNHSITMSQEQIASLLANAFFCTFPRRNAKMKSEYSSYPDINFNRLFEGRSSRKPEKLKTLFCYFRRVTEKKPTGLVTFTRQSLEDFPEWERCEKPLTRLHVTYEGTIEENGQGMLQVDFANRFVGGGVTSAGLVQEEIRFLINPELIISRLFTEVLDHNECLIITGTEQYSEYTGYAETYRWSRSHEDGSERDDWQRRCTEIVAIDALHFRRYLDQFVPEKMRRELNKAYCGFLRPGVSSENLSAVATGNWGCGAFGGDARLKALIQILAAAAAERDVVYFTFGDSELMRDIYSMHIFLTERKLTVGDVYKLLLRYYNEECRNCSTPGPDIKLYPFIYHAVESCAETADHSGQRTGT

Row | SMILES | pIC50 (PARG in HeLa cell line; Homo sapiens) | pIC50 (Human Full Length PARG) | pIC50 (PARG in HeLa cell line)
1 | Cc1cc(Cn2c(=O)c3cc(S(=O)(=O)NC4(CF)CC4)ccc3n(Cc3ccc(F)cc3)c2=O)on1 [Example 518, N-[1-(Fluoromethyl)cyclopropyl]-1-[(4-fluorophenyl)methyl]-3-[(3-methylisoxazol-5-yl)methyl]-2,4-dioxo-quinazoline-6-sulfonamide] | 7.02 | 6.93 | –
2 | Cc1cc(Cn2c(=O)c3cc(S(=O)(=O)NC4(CF)CC4)ccc3n(Cc3cc(C)nn3C)c2=O)on1 [Example 519, 1-[(2,5-Dimethylpyrazol-3-yl)methyl]-N-[1-(fluoromethyl)cyclopropyl]-3-[(3-methylisoxazol-5-yl)methyl]-2,4-dioxo-quinazoline-6-sulfonamide] | 6.51 | 7.30 | –
3 | CCn1c(=O)n(Cc2cc(C)no2)c(=O)c2cc(S(=O)(=O)NC3(CF)CC3)ccc21 [Example 520, 1-Ethyl-N-[1-(fluoromethyl)cyclopropyl]-3-[(3-methylisoxazol-5-yl)methyl]-2,4-dioxo-quinazoline-6-sulfonamide] | – | 6.79 | 7.04
4 | Cc1cc(Cn2c(=O)c3cc(S(=O)(=O)NC4(CF)CC4)ccc3n(Cc3cc(C)no3)c2=O)on1 [Example 521, N-[1-(Fluoromethyl)cyclopropyl]-1,3-bis[(3-methylisoxazol-5-yl)methyl]-2,4-dioxo-quinazoline-6-sulfonamide] | 7.04 | 7.27 | –
5 | Cc1cc(Cn2c(=O)c3cc(S(=O)(=O)NC4(CF)CC4)ccc3n(CC3COC3)c2=O)on1 [Example 522, N-[1-(Fluoromethyl)cyclopropyl]-3-[(3-methylisoxazol-5-yl)methyl]-1-(oxetan-3-ylmethyl)-2,4-dioxo-quinazoline-6-sulfonamide] | 6.03 | 6.95 | –
6 | Cc1cc(Cn2c(=O)c3cc(S(=O)(=O)NC4(CF)CC4)ccc3n(CC#N)c2=O)on1 [Example 523, 1-(Cyanomethyl)-N-[1-(fluoromethyl)cyclopropyl]-3-[(3-methylisoxazol-5-yl)methyl]-2,4-dioxo-quinazoline-6-sulfonamide] | 6.24 | 6.39 | –
7 | Cc1cc(Cn2c(=O)c3cc(S(=O)(=O)NC4(CF)CC4)ccc3n(CC3CCOC3)c2=O)on1 (stereo not drawn) [Example 524, N-[1-(Fluoromethyl)cyclopropyl]-3-[(3-methylisoxazol-5-yl)methyl]-2,4-dioxo-1-(tetrahydrofuran-3-ylmethyl)quinazoline-6-sulfonamide] | 6.51 | 6.90 | –
8 | COCCCn1c(=O)n(Cc2cc(C)no2)c(=O)c2cc(S(=O)(=O)NC3(CF)CC3)ccc21 [Example 525, N-[1-(Fluoromethyl)cyclopropyl]-1-(3-methoxypropyl)-3-[(3-methylisoxazol-5-yl)methyl]-2,4-dioxo-quinazoline-6-sulfonamide] | – | 6.77 | 6.50
9 | C#CCn1c(=O)n(Cc2cc(C)no2)c(=O)c2cc(S(=O)(=O)NC3(CF)CC3)ccc21 [Example 532, N-[1-(Fluoromethyl)cyclopropyl]-3-[(3-methylisoxazol-5-yl)methyl]-2,4-dioxo-1-prop-2-ynyl-quinazoline-6-sulfonamide] | – | 6.92 | 7.06
10 | Cc1ncc(Cn2c(=O)c3cc(S(=O)(=O)NC4(CF)CC4)ccc3n(C)c2=O)s1 [Example 533, N-[1-(Fluoromethyl)cyclopropyl]-1-methyl-3-[(2-methylthiazol-5-yl)methyl]-2,4-dioxo-quinazoline-6-sulfonamide] | 6.55 | 6.54 | –
11 | CCCn1c(=O)n(Cc2cc(C)no2)c(=O)c2cc(S(=O)(=O)NC3(CF)CC3)ccc21 [Example 535, N-[1-(Fluoromethyl)cyclopropyl]-3-[(3-methylisoxazol-5-yl)methyl]-2,4-dioxo-1-propyl-quinazoline-6-sulfonamide] | 6.83 | 6.72 | –
12 | CCCCn1c(=O)n(Cc2cc(C)no2)c(=O)c2cc(S(=O)(=O)NC3(CF)CC3)ccc21 [Example 536, 1-Butyl-N-[1-(fluoromethyl)cyclopropyl]-3-[(3-methylisoxazol-5-yl)methyl]-2,4-dioxo-quinazoline-6-sulfonamide] | – | 6.58 | 6.42
